These results are taken from ChEMBL document CHEMBL3621057, “Multicomponent Synthesis and Biological Evaluation of a Piperazine-Based Dopamine Receptor Ligand Library” (ACS Med Chem Lett, 2015).

In one test the target is D(3) dopamine receptor (Homo sapiens, UniProt P35462). The test can be described thus: Displacement of [3H]spiperone from human dopamine D3 receptor expressed in CHO cells. In kind it is cell-based.
Test [1] concerns the target T1, D(2) dopamine receptor (Homo sapiens, UniProt P14416). The experiment in a line: Displacement of [3H]spiperone from human dopamine D2L receptor expressed in CHO cells. In kind it is cell-based. In general terms: Displacement assays read how much labelled ligand stays bound in the presence of the test substance.
The target in test [2] is T1, D(2) dopamine receptor. The experiment in a line: Antagonist activity at human D2S receptor transfected in HEK293T cells assessed as forskolin-induced cAMP accumulation by BRET assay. In kind it is functional, cell-based. The note with it: HEK-293T. (In general: Changes in cAMP serve as a functional read-out for many G protein-coupled receptors.)
In a further test the target is D(1A) dopamine receptor (Homo sapiens, UniProt P21728). The test can be described thus: Displacement of [3H]SCH23390 from human dopamine D1 receptor expressed in HEK cells. It is filed as cell-based, HEK293.
The target in test [3] is T1, D(2) dopamine receptor. The experiment in a line: Displacement of [3H]spiperone from human dopamine D2S receptor expressed in CHO cells. In kind it is cell-based.
The target of the next test is T2, D(4) dopamine receptor (Homo sapiens, UniProt P21917).
T2 sequence (P21917 whole entry): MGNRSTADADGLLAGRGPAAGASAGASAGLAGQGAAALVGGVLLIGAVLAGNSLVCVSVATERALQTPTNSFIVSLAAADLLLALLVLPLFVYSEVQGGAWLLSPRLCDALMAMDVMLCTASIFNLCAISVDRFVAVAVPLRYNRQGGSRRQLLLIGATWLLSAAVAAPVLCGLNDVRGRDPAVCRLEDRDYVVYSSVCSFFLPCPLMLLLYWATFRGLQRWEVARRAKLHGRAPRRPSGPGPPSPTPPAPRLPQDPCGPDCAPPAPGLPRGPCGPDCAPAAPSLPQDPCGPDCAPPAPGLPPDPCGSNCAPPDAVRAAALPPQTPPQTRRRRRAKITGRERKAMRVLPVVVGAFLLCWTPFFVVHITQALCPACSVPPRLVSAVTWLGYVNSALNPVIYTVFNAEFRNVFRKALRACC
The experiment in a line: Displacement of [3H]spiperone from human dopamine D4 receptor expressed in CHO cells. In kind it is cell-based.

The next test deals with D(1B) dopamine receptor (Homo sapiens, UniProt P21918). The experiment in a line: Displacement of [3H]SCH23390 from human dopamine D5 receptor expressed in HEK cells. In kind it is cell-based, HEK293.

The source made the active and inactive calls. The rule behind the calls is not given here.

T1 sequence (P14416 whole entry): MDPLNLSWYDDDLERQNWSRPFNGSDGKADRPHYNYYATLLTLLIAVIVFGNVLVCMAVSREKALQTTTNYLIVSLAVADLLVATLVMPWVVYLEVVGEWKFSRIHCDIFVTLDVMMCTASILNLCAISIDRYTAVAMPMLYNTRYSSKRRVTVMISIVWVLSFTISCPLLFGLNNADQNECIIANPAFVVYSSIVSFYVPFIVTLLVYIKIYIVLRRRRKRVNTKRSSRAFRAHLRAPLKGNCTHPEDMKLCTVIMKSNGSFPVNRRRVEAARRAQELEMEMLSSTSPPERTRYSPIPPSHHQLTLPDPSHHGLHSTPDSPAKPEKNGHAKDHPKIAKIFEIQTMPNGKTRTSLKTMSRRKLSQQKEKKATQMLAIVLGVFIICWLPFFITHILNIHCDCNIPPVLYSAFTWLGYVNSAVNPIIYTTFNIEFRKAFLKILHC
Chain of D(3) dopamine receptor (P35462 whole entry): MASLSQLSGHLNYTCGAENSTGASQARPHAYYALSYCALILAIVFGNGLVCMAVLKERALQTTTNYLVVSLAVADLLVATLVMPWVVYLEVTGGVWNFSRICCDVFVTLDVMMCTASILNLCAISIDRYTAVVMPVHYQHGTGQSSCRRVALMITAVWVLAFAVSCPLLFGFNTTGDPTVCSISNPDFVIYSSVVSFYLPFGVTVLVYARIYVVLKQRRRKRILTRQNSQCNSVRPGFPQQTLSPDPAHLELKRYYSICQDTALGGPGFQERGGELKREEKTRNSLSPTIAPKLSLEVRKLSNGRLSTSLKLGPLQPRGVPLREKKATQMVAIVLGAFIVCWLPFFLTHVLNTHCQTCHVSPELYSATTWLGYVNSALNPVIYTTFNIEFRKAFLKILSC
Chain of D(1A) dopamine receptor (P21728 whole entry): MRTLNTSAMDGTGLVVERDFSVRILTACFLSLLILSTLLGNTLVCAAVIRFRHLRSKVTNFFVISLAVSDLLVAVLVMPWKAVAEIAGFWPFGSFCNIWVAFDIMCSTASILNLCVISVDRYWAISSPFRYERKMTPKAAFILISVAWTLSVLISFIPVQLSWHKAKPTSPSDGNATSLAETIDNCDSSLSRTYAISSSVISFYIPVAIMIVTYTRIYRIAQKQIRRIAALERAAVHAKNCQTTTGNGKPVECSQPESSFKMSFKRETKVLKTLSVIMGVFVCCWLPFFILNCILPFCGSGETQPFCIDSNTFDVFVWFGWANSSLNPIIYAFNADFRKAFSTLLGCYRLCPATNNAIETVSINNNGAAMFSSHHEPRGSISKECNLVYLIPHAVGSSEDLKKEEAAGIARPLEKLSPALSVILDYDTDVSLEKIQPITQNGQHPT
Chain of D(1B) dopamine receptor (P21918 whole entry): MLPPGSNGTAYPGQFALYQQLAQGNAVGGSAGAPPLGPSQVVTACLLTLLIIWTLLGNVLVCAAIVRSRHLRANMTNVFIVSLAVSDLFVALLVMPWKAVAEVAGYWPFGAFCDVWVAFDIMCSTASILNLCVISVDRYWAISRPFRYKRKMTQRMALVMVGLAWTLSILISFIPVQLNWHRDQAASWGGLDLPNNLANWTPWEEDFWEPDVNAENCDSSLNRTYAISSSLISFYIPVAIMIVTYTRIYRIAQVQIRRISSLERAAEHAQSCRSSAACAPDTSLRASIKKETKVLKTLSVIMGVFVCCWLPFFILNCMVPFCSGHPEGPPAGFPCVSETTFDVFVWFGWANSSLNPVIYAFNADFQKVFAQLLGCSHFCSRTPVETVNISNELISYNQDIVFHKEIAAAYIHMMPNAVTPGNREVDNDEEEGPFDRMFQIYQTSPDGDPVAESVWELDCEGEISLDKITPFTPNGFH

Turning to `CCCN(CCN1CCN(Cc2cc3ccccc3[nH]2)CC1)c1ccc(OC)cc1`, the figures for the Ki at D(3) dopamine receptor and at D(2) dopamine receptor [1] were 1300 nM and 520 nM, respectively.
For `COc1ccc(NCCN2CCN(Cc3cc4ccccc4[nH]3)CC2)cc1`, in that order: 18000 nM and 7500 nM.
Regarding `COc1ccc(NCCN2CCN(CCc3c[nH]c4ccccc34)CC2)cc1`, the inhibition constant Ki (as a rule, a dissociation constant, usually derived from enzyme kinetics or from competition with a known ligand) at D(3) dopamine receptor is 620 nM; at D(2) dopamine receptor [1], 430 nM.
On to `CCCN(CCN1CCN(Cc2cc3ccccc3[nH]2)CC1)c1ccc(Br)cc1`, for which the Ki worked out at 600 nM at D(3) dopamine receptor and 220 nM on D(2) dopamine receptor [1].
For `COc1ccc(CNCCN2CCN(Cc3cc4ccccc4[nH]3)CC2)cc1`, in that order: 4300 nM and 4000 nM.
In the same order, the values of `Brc1ccc(CNCCN2CCN(Cc3cc4ccccc4[nH]3)CC2)cc1` are 1800 nM and 5200 nM.
For `CCCN(CCN1CCN(Cc2cc3ccccc3[nH]2)CC1)Cc1ccc(OC)cc1`, the Ki at D(3) dopamine receptor is 4600 nM; at D(2) dopamine receptor [1] it was 4100 nM.
As for `CCCN(CCN1CCN(CCc2c[nH]c3ccccc23)CC1)c1ccc(Br)cc1`, the result on D(2) dopamine receptor [2] was Active. Further, the Ki at D(1A) dopamine receptor turned out to be 250 nM; at D(3) dopamine receptor, 89 nM; at D(2) dopamine receptor [3], 51 nM; at D(2) dopamine receptor [1], 58 nM; on D(4) dopamine receptor, 0.72 nM; on D(1B) dopamine receptor, 1300 nM.
In the case of `CCCN(CCN1CCN(Cc2cc3ccccc3[nH]2)CC1)Cc1ccc(Br)cc1`, the values for the Ki at D(3) dopamine receptor and at D(2) dopamine receptor [1] were 930 nM and 920 nM, respectively.
In the same order, the values of `CCCN(CCN1CCN(CCc2c[nH]c3ccccc23)CC1)c1ccc(OC)cc1` are 280 nM and 120 nM.
For the molecule `Brc1ccc(NCCN2CCN(Cc3cc4ccccc4[nH]3)CC2)cc1`, the Ki on D(3) dopamine receptor came to 2300 nM; on D(2) dopamine receptor [1], 920 nM.
For the molecule `Brc1ccc(NCCN2CCN(CCc3c[nH]c4ccccc34)CC2)cc1`, on D(2) dopamine receptor [2], the outcome was Active. The Ki at D(1A) dopamine receptor stood at 480 nM; at D(3) dopamine receptor, 200 nM; at D(2) dopamine receptor [3] it was 48 nM; at D(2) dopamine receptor [1], 53 nM; on D(4) dopamine receptor, 20 nM; on D(1B) dopamine receptor, 3600 nM.
